Measurements reported in US20200062705A1, “NOVEL CRYSTALLINE FORMS” (Biogen MA Inc., priority 2017, published 2020).

Assays:
Type in all cases: physicochemical
[1] = Powder bulk density analysis (ring shear tester); settings: for Initial Density: initial bulk density, corresponds to x = 0 in FIG. 21, mass of powder normalized by volume of the cell; for Density results (Table 21 and FIG. 21) compared with the product of Route D (E12): initial density and density at varying stresses, higher density = more ideal packing
Excerpt: Solid forms prepared according to the procedures described for Routes D, E, and F (Examples 12-14, respectively) were subjected to powder bulk density analysis in accordance with the following procedure.
A ring shear tester (RST-XS.s, Dietmar Schulze, Wolfenbüttel, Germany) with RST CONTROL 95 software was used for the bulk density analysis. For this analysis, Low-Stress Shear Cell, XS-Lr0, bottom ring was over-filled with small portions of powder using a spatula. The excess powder was removed by gently scraping off the powder with the spatula until the powder was flush with the top of the ring. The bottom ring was weighed and the total mass was entered. When prompted the shear cell lid was attached to the loading rod and the filled bottom ring placed on the driving axle for the test. The initial bulk density was calculated by the control software from the mass of powder normalized by the volume of the cell. During the shear test, 5 preshear normal stresses, 0.1, 0.2, 0.3, 0.4, and 0.5 kPa were applied to the powder before it was sheared until steady state was achieved. At each preshear normal stress, the powder was sheared to failure at 5 increasing normal stresses between 0 and the preshear normal stress to generate corresponding shear stresses at failure. A yield locus was generated by applying a linear regression to the shear stresses as a function of the normal stress plot. The Major Principal Stress (x-axis) was the maximum value obtained when a Mohr's circle was drawn through the preshear normal stress and tangential to the yield locus. The volume of powder at each steady state was determined from the change in height of the lid and, together with the initial powder mass, used to calculate the powder bulk densities (y-axis).

[2] = Powder flow function analysis (ring shear tester); settings: FIG. 22; lower flow function curve = good flow
Excerpt: Solid forms prepared according to the procedures described for Routes D, E, and F (Examples 12-14, respectively) were subjected to powder flow function analysis in accordance with the following procedure:
A ring shear tester (RST-XS.s, Dietmar Schulze, Wolfenbüttel, Germany) with RST CONTROL 95 software was used for the flow function analysis. For this analysis, Low-Stress Shear Cell, XS-Lr0, bottom ring was over-filled with small portions of powder using a spatula. The excess powder was removed by gently scraping off the powder with the spatula until the powder was flush with the top of the ring. The bottom ring was weighed and the total mass was entered. When prompted the shear cell lid was attached to the loading rod and the filled bottom ring placed on the driving axle for the test. To obtain a flow function, 5 yield loci were determined using the “Stress Walk” function in the control software. During the shear test, 5 preshear normal stresses, 0.1, 0.2, 0.3, 0.4, and 0.5 kPa were applied to the powder to generate the 5 yield loci. At each preshear normal stress, the powder was sheared to failure at 5 equally-spaced normal stresses between 0 and the preshear normal stress to generate corresponding shear stresses at failure. Each yield locus was derived by applying a linear regression to the shear stresses as a function of the normal stress plot. […]

[3] = Powder time consolidation behavior analysis (ring shear tester); settings: FIG. 23; 0 hrs vs 12 hrs storage, x=250 Pa
Excerpt: Solid forms prepared according to the procedures described for Routes E and F (Examples 13 and 14, respectively) were subjected to powder time consolidation behavior analysis in accordance with the following procedure.
A ring shear tester (RST-XS.s, Dietmar Schulze, Wolfenbüttel, Germany) with RST CONTROL 95 software was used for the flow function analysis. For this analysis, Low-Stress Shear Cell, XS-Lr0, bottom ring was over-filled with small portions of powder using a spatula. The excess powder was removed by gently scraping off the powder with the spatula until the powder was flush with the top of the ring. The bottom ring was weighed and the total mass was entered. When prompted the shear cell lid was attached to the loading rod and the filled bottom ring placed on the driving axle for the test. For the time consolidation test, a yield locus was first obtained by applying a 0.1 kPa preshear stress and 5 normal stresses equally spaced between 0 and the preshear stress to the powder and determining the corresponding shear stresses. A fresh powder sample was again prepared and conditioned to a similar steady state as that for the just obtained yield locus. […] The change in the shear stress obtained after this new conditioned state was determined and that represents the time consolidation behavior of the powder. […]

[4] = Relative stability of crystalline forms; settings: comparison among crystalline forms identified

Initial Density [1] | Density results (Table 21 and FIG. 21) compared with the product of Route D (E12) [1] | Powder flow (flow function curve: unconfined yield strength vs major principal stress) compared with a product of Route D (E12) [2] | SMILES | Time consolidation effect (unconfined yield strength gained on storage) [3] | Stability of the crystalline form relative to other forms [4]
0.254 g/mL | – | – | Cl.NC(=O)[C@@H]1CC[C@H](c2ccc(OCc3ccccc3F)cc2)N1 [Example E12, (5R)-5-(4-{[(2-Fluorophenyl)methyl]oxy}phenyl)-L-prolinamide Hydrochloride (Anhydrous; Route D)] | – | –
0.565 g/mL | far superior | better | Cl.NC(=O)[C@@H]1CC[C@H](c2ccc(OCc3ccccc3F)cc2)N1 [Example E13, (5R)-5-(4-{[(2-Fluorophenyl)methyl]oxy}phenyl)-L-prolinamide Hydrochloride (Anhydrous; Route E)] | – | –
0.512 g/mL | far superior | better | Cl.NC(=O)[C@@H]1CC[C@H](c2ccc(OCc3ccccc3F)cc2)N1 [Example E14, (5R)-5-(4-{[(2-Fluorophenyl)methyl]oxy}phenyl)-L-prolinamide Hydrochloride (Anhydrous; Route F)] | does not exhibit as much of a consolidation effect as the product of Route E (E13) | –
– | – | – | Cl.NC(=O)[C@@H]1CC[C@H](c2ccc(OCc3ccccc3F)cc2)N1 [Form 1, (5R)-5-(4-{[(2-Fluorophenyl)methyl]oxy}phenyl)-L-prolinamide Hydrochloride Form 1 (Anhydrous A)] | – | most stable crystalline form identified to date
– | – | – | Cl.NC(=O)[C@@H]1CC[C@H](c2ccc(OCc3ccccc3F)cc2)N1 [Form 9, (5R)-5-(4-{[(2-Fluorophenyl)methyl]oxy}phenyl)-L-prolinamide Hydrochloride Form 9 (Anhydrous B)] | – | less stable than Anhydrous Form A (Form 1)
– | – | – | Cl.NC(=O)[C@@H]1CC[C@H](c2ccc(OCc3ccccc3F)cc2)N1 [Form 10, (5R)-5-(4-{[(2-Fluorophenyl)methyl]oxy}phenyl)-L-prolinamide Hydrochloride Form 10 (Anhydrous C)] | – | less stable than Anhydrous Form A (Form 1)
